Assay results: patent publication US20230391756A1, “NEW COMPOUND” (JANSSEN PHARMACEUTICA NV, priority 2020, published 2023)

Tests used:
[1] = system: NLRP3 inflammasome pathway (IL-1β); test: PBMC assay: IL-1β release after LPS stimulation; type: cell-based; conditions: human PBMCs, 100 ng/ml LPS for 6 hrs, MSD
Method: The activity of a compound according to the present invention can be assessed by in vitro methods.
(§1) Peripheral venous blood was collected from healthy individuals and human peripheral blood mononuclear cells (PBMCs) were isolated from blood by Ficoll-Histopaque (Sigma-Aldrich, A0561) density gradient centrifugation. After isolation, PBMCs were stored in liquid nitrogen for later use. Upon thawing, PBMC cell viability was determined in growth medium (RPMI media supplemented with 10% fetal bovine serum, 1% Pen-Strep and 1% L-glutamine). […] PBMCs were added at a density of 7.5×10^4 cells per well and incubated for 30 min in a 5% CO2 incubator at 37° C. LPS stimulation was performed by addition of 100 ng/ml LPS (final concentration, Invivogen, tlrl-smlps) for 6 hrs followed by collection of cellular supernatant and the analysis of IL-1β (μM) and TNF cytokines levels (μM) via MSD technology according to manufacturers' guidelines (MSD, K151A0H).

TNF = test: PBMC assay: TNF cytokine level after LPS stimulation; type: cell-based; conditions: human PBMCs, 100 ng/ml LPS for 6 hrs, MSD, read-out: TNFα EC50
Method: as §1

SMILES	melting point [°C]	IC50 [1] [µM]	EC50 (TNF) [µM]
CC(C)n1nc(CC(=O)Nc2cc(Cl)c(=O)n(C(F)F)c2)c(=O)c2ccc(C(F)(F)F)cc21 [F-47]	233	3.65	> 20
CCn1nc(CC(=O)Nc2ncc3ncn(C)c3n2)c(=O)c2ccc(C(F)(F)F)cc21 [F-48]	271	3.26	> 20
CCC(C)n1nc(CC(=O)Nc2ccc3nncn3c2)c(=O)c2ccc(C(F)(F)F)cc21 (stereo not drawn) [F-49]	156.4	3.19	> 20
CC(C)n1nc(CC(=O)Nc2ncc3ncn(C)c3n2)c(=O)c2ccc(C(F)(F)F)cc21 [F-50]	281.4	2.95	> 20
Cc1ncc2n1CCC(NC(=O)Cc1nn(C(C)C)c3cc(C(F)(F)F)ccc3c1=O)C2 (stereo not drawn) [F-51]	233.4	2.48	> 20
CCn1nc(CC(=O)Nc2ccc3ncn(C)c3n2)c(=O)c2ccc(C(F)(F)F)cc21 [F-57]	237.8	0.514	> 20
CC(C)c1ccc2c(=O)c(CC(=O)Nc3ccc4nccn4n3)nn(C3CC3)c2c1 [F-58]	190.1	0.37	15.8
CCn1nc(CC(=O)Nc2ccc3nccn3n2)c(=O)c2ccc(C(F)(F)F)cc21 [F-60]	193	0.35	~12.8
O=C(Cc1nn(C2CC2)c2cc(C(F)(F)F)ccc2c1=O)Nc1ccc2nccn2n1 [F-61]	216.4	0.29	> 20
CCn1nc(CC(=O)Nc2ccc3nccn3n2)c(=O)c2ccc(C3CC3)cc21 [F-62]	193.4	0.275	> 20
CC(F)(F)c1ccc2c(=O)c(CC(=O)Nc3ccc4nccn4n3)nn(C3CC3)c2c1 [F-64]	188.9	0.26	7.89
O=C(Cc1nn(C2CC2)c2cc(Br)ccc2c1=O)Nc1ccc2nccn2n1 [F-66]	244.6	0.23	> 20
CC(F)(F)c1ccc2c(=O)c(CC(=O)Nc3ccc4nncn4c3)nn(C3CC3)c2c1 [F-67]	145.4	0.22	> 20
CCn1nc(CC(=O)Nc2ccc3nncn3c2)c(=O)c2ccc(C(C)(F)F)cc21 [F-68]	279.8	0.2	> 20
CCn1nc(CC(=O)Nc2ccc3nncn3n2)c(=O)c2ccc(C(C)(F)F)cc21 [F-70]	252.9	0.147	7.84
O=C(Cc1nn(C2CC2)c2cc(Br)ccc2c1=O)Nc1ccc2nncn2c1 [F-71]	310	0.105	> 20
CCn1nc(CC(=O)Nc2ccc3nncn3c2)c(=O)c2ccc(C(C)(C)F)cc21 [F-74]	238.2	0.4	12.5
CC(C)n1nc(CC(=O)Nc2ccc3nncn3c2)c(=O)c2ccc(C(C)(C)F)cc21 [F-75]	256.8	0.52	14.6
CC(C)n1nc(CC(=O)Nc2ccc(I)nn2)c(=O)c2ccc(C(F)(F)F)cc21 [F-85]	177.9	15.3	> 20
CC(C)n1nc(CC(=O)Nc2ccc(C3CC3)nn2)c(=O)c2ccc(C(F)(F)F)cc21 [F-86]	185.8	12.9	> 20
CC(C)n1nc(CC(=O)Nc2nc3ccccc3n2C)c(=O)c2ccc(C(F)(F)F)cc21 [F-91]	214.7	> 20	> 20
CC(C)n1nc(CC(=O)Nc2nc3ccc(C#N)cc3n2C)c(=O)c2ccc(C(F)(F)F)cc21 [F-92]	242.9	> 20	> 20

SMILES	melting point [°C]	IC50 [1] [µM]	EC50 (TNF) [µM]
CC(C)n1nc(CC(=O)Nc2nc3ccc(Br)cc3n2C)c(=O)c2ccc(C(F)(F)F)cc21 [F-93]	219.5	> 20	> 20
Cc1ccc2c(c1)nc(NC(=O)Cc1nn(C(C)C)c3cc(C(F)(F)F)ccc3c1=O)n2C [F-94]	217.3	> 20	> 20
Cc1ccc2nc(NC(=O)Cc3nn(C(C)C)c4cc(C(F)(F)F)ccc4c3=O)n(C)c2c1 [F-95]	217.4	> 20	> 20
CC(C)n1nc(CC(=O)Nc2nc3ccc(F)cc3n2C)c(=O)c2ccc(Br)cc21 [F-96]	229.8	> 20	> 20
CC(C)n1nc(CC(=O)Nc2nc3cc(F)ccc3n2C)c(=O)c2ccc(Br)cc21 [F-97]	245.3	> 20	> 20
CC(C)n1nc(CC(=O)Nc2nc3cc(F)ccc3n2C)c(=O)c2ccc(C(F)(F)F)cc21 [F-98]	222.5	> 20	> 20
CC(C)n1nc(CC(=O)Nc2nc3ccc(F)cc3n2C)c(=O)c2ccc(C(F)(F)F)cc21 [F-99]	221.8	> 20	> 20
CC(C)n1nc(CC(=O)Nc2nc3ccccc3n2C)c(=O)c2ccc(Br)cc21 [F-100]	205.6	18.2	> 20
CC(C)n1nc(CC(=O)Nc2nc3cc(C#N)ccc3n2C)c(=O)c2ccc(C(F)(F)F)cc21 [F-101]	243.8	15	~16.5
CC(C)n1nc(CC(=O)Nc2nc3cc(Cl)ccc3o2)c(=O)c2ccc(Br)cc21 [F-104]	199	2.48	> 20
CCn1nc(CC(=O)Nc2cn3cnnc3cn2)c(=O)c2ccc(C(F)(F)F)cc21 [F-106]	280.2	1.45	> 20
O=C(Cc1nn(C2CC2)c2cc(C(F)(F)F)ccc2c1=O)Nc1cn2cnnc2cn1 [F-107]	270.9	1.14	> 20
CC(F)(F)c1ccc2c(=O)c(CC(=O)Nc3cn4cnnc4cn3)nn(C3CC3)c2c1 [F-108]	257.9	0.985	> 20
CC(C)n1nc(CC(=O)Nc2nc3ccccc3o2)c(=O)c2ccc(C(F)(F)F)cc21 [F-110]	187.4	0.9	> 20
CC(C)n1nc(CC(=O)Nc2nc3ccccc3o2)c(=O)c2ccc(Br)cc21 [F-111]	203.3	0.62	> 20
O=C(Cc1nn(C2CC2)c2cc(Br)ccc2c1=O)Nc1cn2cnnc2cn1 [F-113]	277.2	0.513	> 20
CC(C)n1nc(CC(=O)Nc2nc3ncccn3n2)c(=O)c2ccc(C(F)(F)F)cc21 [F-114]	259.7	0.33	> 20
CC(C)n1nc(CC(=O)Nc2ccc3nnc(Cl)n3n2)c(=O)c2ccc(C(F)(F)F)cc21 [F-132]	248.9	0.892	> 20
CCn1nc(CC(=O)Nc2ccc3nncn3n2)c(=O)c2ccc(C3CCC3)cc21 [F-136]	136.4	1.03	14.1
O=C(Cc1nn(C2CC2)c2cc(C(F)(F)F)ccc2c1=O)Nc1ccc2nncn2n1 [F-139]	215.7	0.21	> 20
CCn1nc(CC(=O)Nc2ccc3nncn3n2)c(=O)c2ccc(C3CC3)cc21 [F-141]	223	0.12	9.77
